Read-outs that look alike come from different tables or passages of the source.
Legend:
Assay type in all cases: cell-based
TNF-α = TNF-α activity inhibition experiment in LPS-stimulated PBMC (ELISA); conditions: Homo sapiens, compound 10 nM, LPS 1 ug/ml, 72 hours, read-out: Inhibition rate of TNF-a (%)
Method: (§1) All operations of this experiment were carried out according to the conventional experimental process of this kind of experiment at present. Peripheral blood from healthy volunteers was collected by routine standard procedure and cultured in 1640 medium (+10% FBS) to obtain PBMC. After recovery, PBMC was centrifuged and resuspended in serum-free medium. After counting, adjusted the density to be 6.25×10^5/ml; then inoculated 160 ul to a 96-well plate, 1×10^5/well; 20 ul 10× compound and DMSO were added, and incubated for 1 hour in an incubator; then 20 ul 10 XLPS was added resulting the final concentration of 1 ug/ml and incubated in an incubator for 72 hours. Centrifuged the cell plate at 1500 rpm and aspirated 50 ul supernatant according to the ELISA operation. After operating according to the kit, a microplate reader was used to read at 450 nm. The concentration of compound was 10 nM, and DMSO was added as control group. Materials used in this experiment: 96 well plate (Corning, #3599), ELISA kit (Thermo), LPS (Sigma, USA).

MV-4-11 cells = assay: Effect of the compound on proliferation of MV-4-11 cells (MTS); conditions: Homo sapiens
Method: MV-4-11 cells were cultured with IMDM plus 10% fetal bovine serum and collected. The cell concentration was diluted according to the action time of 7 days, and 180 ul of cell suspension was added to each well of a 96-well cell plate to make the cell count to be 2000. 20 ul of DMSO with a final concentration of 0.2% was added to the control cell wells. The compound was diluted 5-fold with the 10 mM stock solution, and 20 ul was also added to the compound cell wells (the final concentration of DMSO was 0.2%). The cells were placed in a 37° C., 5% CO2 incubator and incubated for 7 days. After preparing the reaction solution according to the MTS kit (Promega, G5430), 20 μL was added to each well, incubated in a 37° C., 5% CO2 incubator for 3-4 h. Read the 490 nm absorbance value with a microtiter plate, and used the 690 nm absorbance value as the background value and OD490-OD690 as the final initial data. The formula for calculating the inhibition rate of the compound was: inhibition rate=(OD DMSO-ODcompound)/(ODDMSO-Oblank)×100%. The compound's proliferation inhibition IC50 was fitted by Graph Pad Prism 5.0. The experiment was repeated three times, and three parallel experiments were used to calculate the average and standard deviation each time. The cell viability test results were shown in Table 3: A means cell viability IC50<1 μM, B means cell viability 1 μM≤IC50≤20 μM, C means cell viability IC50>20 μM.

IL-2 = IL-2 expression change in anti-human CD3 stimulated PBMC (ELISA); conditions: compound 10 nM, anti-human CD3 10 ug/ml, 24 hours
Method: as §1, with “plate, 2 holes each,” for “plate,”, “ul 10× anti-human CD3” for “ul 10 XLPS”, “of 10” for “of 1”, “for 24” for “for 72”

With Nc1cccc2c1CN(C1CCC(=O)NC1=O)C2=O (stereo not shown) [Lenalidomide, lenalidomide, reference compound] the inhibition at 0.01 µM (TNF-α) was < 50%, the IC50 (MV-4-11 cells; MV4-11, 168 h, 7 days, MTS, read-out: Inhibitory activity (IC50)) was > 20 µM and the IC50 (MV-4-11 cells; MV4-11, read-out: cytostatic activity (IC50) on MV-4-11 cells) was > 20 µM. The “Increase multiple of IL-2 Expression” value (IL-2) was >3.

— US20220041578A1, “ISOINDOLINE COMPOUND, AND PREPARATION METHOD, PHARMACEUTICAL COMPOSITION, AND APPLICATION OF ISOINDOLINE COMPOUND” (Shanghai Institute of Meteria Medica, Chinese Academy of …, priority 2018, published 2022)
